Source: ChEMBL document CHEMBL1201862, “PubChem BioAssay data set” (2004)
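A five-concentration, 48-hour dose response in 96-well plates underlies each endpoint, interpolated linearly between surrounding concentrations. Here, GI50 denotes the concentration required for 50% inhibition of growth.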 Active and inactive are the calls of the source. Rule as the data show it: active = GI50 up to about 1.1 µM and inactive = higher.

What was measured:
Assay in all cases: DTP human tumour cell line panel, 48 h
SF-295 = system: SF-295
PC-3 = system: PC-3
NCI/ADR-RES = system: NCI/ADR-RES
NCI-H460 = system: NCI-H460
BT-549 = system: BT-549
SK-MEL-2 = system: SK-MEL-2
ACHN = system: ACHN
IGROV-1 = system: IGROV-1
SK-OV-3 = system: SK-OV-3
OVCAR-8 = system: OVCAR-8
HL-60 = system: HL-60
UACC-257 = system: UACC-257
SF-268 = system: SF-268
HOP-62 = system: HOP-62
K562 = system: K562
MDA-MB-231 = system: MDA-MB-231
SK-MEL-5 = system: SK-MEL-5
EKVX = system: EKVX
HOP-92 = system: HOP-92

Compound | GI50 (SF-295) | GI50 (PC-3) | GI50 (NCI/ADR-RES) | GI50 (NCI-H460) | GI50 (BT-549) | GI50 (SK-MEL-2) | GI50 (ACHN) | GI50 (IGROV-1) | GI50 (SK-OV-3) | GI50 (OVCAR-8) | GI50 (HL-60) | GI50 (UACC-257) | GI50 (SF-268) | GI50 (HOP-62) | GI50 (K562) | GI50 (MDA-MB-231) | GI50 (SK-MEL-5) | GI50 (EKVX) | GI50 (HOP-92)
O=C(O)C12C3CCC(CC3)C1(C(=O)O)C1CCC2C1 (configuration not stated) | > 100 µM (inactive) | > 100 µM (inactive) | > 100 µM (inactive) | > 100 µM (inactive) | > 100 µM (inactive) | > 100 µM (inactive) | > 100 µM (inactive) | > 100 µM (inactive) | > 100 µM (inactive) | > 100 µM (inactive) | > 100 µM (inactive) | > 100 µM (inactive) | > 100 µM (inactive) | > 100 µM (inactive) | > 100 µM (inactive) | > 100 µM (inactive) | > 100 µM (inactive) |  | 
CCCCNC(=S)N/C=C1\C(=O)Nc2ccccc2C1=O | > 10 µM (inactive) | > 10 µM (inactive) | > 10 µM (inactive) | > 10 µM (inactive) | > 10 µM (inactive) |  | > 10 µM (inactive) | > 10 µM (inactive) |  | > 10 µM (inactive) | > 10 µM (inactive) | > 10 µM (inactive) | > 10 µM (inactive) | > 10 µM (inactive) | > 10 µM (inactive) | > 10 µM (inactive) |  | > 10 µM (inactive) | > 10 µM (inactive)
O=C(c1ccccc1)n1c2ccc(Br)cc2c2nc3ccccc3nc21 | > 100 µM (inactive) | 43.2 µM (inactive) | > 100 µM (inactive) | 71 µM (inactive) | > 100 µM (inactive) | 95.3 µM (inactive) | 57.1 µM (inactive) | 67.6 µM (inactive) |  | > 100 µM (inactive) | > 100 µM (inactive) | > 100 µM (inactive) | > 100 µM (inactive) | 15.9 µM (inactive) | 72.8 µM (inactive) | > 100 µM (inactive) | > 100 µM (inactive) | > 100 µM (inactive) | > 100 µM (inactive)
CON(C)C(=O)[C@H]1C[C@@]1(C)CO | > 100 µM (inactive) | > 100 µM (inactive) | > 100 µM (inactive) | > 100 µM (inactive) | > 100 µM (inactive) | > 100 µM (inactive) | > 100 µM (inactive) | > 100 µM (inactive) | > 100 µM (inactive) | > 100 µM (inactive) |  | > 100 µM (inactive) | > 100 µM (inactive) | > 100 µM (inactive) | > 100 µM (inactive) | > 100 µM (inactive) | > 100 µM (inactive) | > 100 µM (inactive) | > 100 µM (inactive)
O=c1oc2ccccc2c2c1Sc1ccccc1N2 | > 100 µM (inactive) | > 100 µM (inactive) | > 100 µM (inactive) | 92.9 µM (inactive) | > 100 µM (inactive) | 2.58 µM (inactive) | > 100 µM (inactive) | > 100 µM (inactive) |  | > 100 µM (inactive) | > 100 µM (inactive) | > 100 µM (inactive) | 56.6 µM (inactive) | > 100 µM (inactive) | > 100 µM (inactive) | 85.5 µM (inactive) | 48.9 µM (inactive) | 62.2 µM (inactive) | 12.7 µM (inactive)
O=C(/C=C/c1ccccc1)c1cc(CN2CCOCC2)c(O)c(CN2CCOCC2)c1 | 19.1 µM (inactive) | 19.2 µM (inactive) | 25.5 µM (inactive) | 6.71 µM (inactive) | 28 µM (inactive) | 23.4 µM (inactive) | 2.32 µM (inactive) | > 100 µM (inactive) |  | 25.2 µM (inactive) | 4.57 µM (inactive) | 14.3 µM (inactive) | 19.1 µM (inactive) | 16.8 µM (inactive) | 5.47 µM (inactive) | 18.2 µM (inactive) | 13.1 µM (inactive) | 25.3 µM (inactive) | 12.1 µM (inactive)
c1cncc(CNCCN2CCNCC2)c1 | > 100 µM (inactive) | > 100 µM (inactive) | > 100 µM (inactive) | > 100 µM (inactive) | > 100 µM (inactive) | > 100 µM (inactive) | > 100 µM (inactive) | > 100 µM (inactive) | > 100 µM (inactive) | > 100 µM (inactive) |  | > 100 µM (inactive) | > 100 µM (inactive) | > 100 µM (inactive) | > 100 µM (inactive) | > 100 µM (inactive) | > 100 µM (inactive) | > 100 µM (inactive) | > 100 µM (inactive)
CCOC(=O)c1[nH]c2cccc3c2c1CC(Br)C3=O (configuration not stated) | 17.2 µM (inactive) | 15.1 µM (inactive) | 15.3 µM (inactive) | 22.3 µM (inactive) | 16.9 µM (inactive) |  | 6.98 µM (inactive) | 5.86 µM (inactive) | 22.7 µM (inactive) | 16.6 µM (inactive) | 2.94 µM (inactive) | 14.4 µM (inactive) | 15.6 µM (inactive) | 19 µM (inactive) |  | 18.5 µM (inactive) | 18.5 µM (inactive) | 17.5 µM (inactive) | 16.7 µM (inactive)
CN(C)CCCNc1cc(O)c2c(c1O)C(=O)c1ccccc1C2=O | 13.1 µM (inactive) | 13.8 µM (inactive) | 3.4 µM (inactive) | 6.46 µM (inactive) | 17 µM (inactive) | 19.8 µM (inactive) | 12.9 µM (inactive) | 10.6 µM (inactive) | 12.2 µM (inactive) | 12.6 µM (inactive) |  | 13.6 µM (inactive) | 16.8 µM (inactive) | 11.1 µM (inactive) | 2.79 µM (inactive) | 12.6 µM (inactive) | 13.2 µM (inactive) | 15 µM (inactive) | 12.3 µM (inactive)
O=C1N(c2ccccc2)C(=S)/C(=C/c2ccc(Cl)cc2)N1c1ccc(Cl)cc1 | 38.4 µM (inactive) | > 100 µM (inactive) | 77.3 µM (inactive) | > 100 µM (inactive) | 44.4 µM (inactive) | 43.7 µM (inactive) | 19.1 µM (inactive) | 41.3 µM (inactive) | 27.1 µM (inactive) | 33.6 µM (inactive) | 32.5 µM (inactive) | 55.8 µM (inactive) | 46.9 µM (inactive) | 32.2 µM (inactive) | 41.9 µM (inactive) | 27 µM (inactive) | 46.6 µM (inactive) | 38.5 µM (inactive) | 
N#Cc1nc(-c2ccccn2)c(-c2ccccn2)nc1C#N | 0.811 µM (active) | 4.88 µM (inactive) | 1.8 µM (inactive) | 0.47 µM (active) | 2.36 µM (inactive) | 3.59 µM (inactive) | 1.11 µM (active) | 1.43 µM (inactive) | 1.6 µM (inactive) | 2.64 µM (inactive) |  | 3.65 µM (inactive) | 1.25 µM (inactive) | 1.74 µM (inactive) | 5.85 µM (inactive) | 10.7 µM (inactive) | 1.85 µM (inactive) | 3.15 µM (inactive) | 7.96 µM (inactive)
O=C(n1[nH]c(=O)n(-c2ccc([N+](=O)[O-])cc2)c1=O)C(Cl)(Cl)Cl | > 75 µM (inactive) | > 75 µM (inactive) | > 75 µM (inactive) | > 75 µM (inactive) | > 75 µM (inactive) | > 75 µM (inactive) | > 75 µM (inactive) | > 75 µM (inactive) | > 75 µM (inactive) | > 75 µM (inactive) | > 75 µM (inactive) | > 75 µM (inactive) | > 75 µM (inactive) | > 75 µM (inactive) | > 75 µM (inactive) | > 75 µM (inactive) | > 75 µM (inactive) | > 75 µM (inactive) | 
